Data: patent US12371464B2, “Polypeptides and uses thereof” (MEDIMMUNE LIMITED, priority 2020, dated 2025)
Numbered stars: 1 amine (or outer) side, 2 acyl side, 3 side chain; on linkers, the order of the positions; unused ones are H or OH. Bridge positions count the residues as written; N and C are the ends. Side chains are listed from the residue outwards. Peptide text beside a SMILES is read from it. * marks the point of attachment. C20 diacid = O=C(O)CCCCCCCCCCCCCCCCCCC(=O)*; γGlu = O=C(O)[C@H](CCC(=O)[*:2])N[*:1]

How the values were obtained:
[1] = biological target: T1, rat amylin receptor (calcitonin receptor co-expressed with receptor activity modifying protein, RAMP3) (Rat AMYR3) (Rattus norvegicus, UniProt P32214+Q9JJ73); assay: cAMP production in HEK cells with stable recombinant expression of rat amylin receptor (Rat AMYR3); format: cell-based; conditions: cAMP HTRF, assay buffer with 0.1% BSA, 30 minutes
T1 construct: expressed in transfected cells
T1 sequence (P32214 25-516): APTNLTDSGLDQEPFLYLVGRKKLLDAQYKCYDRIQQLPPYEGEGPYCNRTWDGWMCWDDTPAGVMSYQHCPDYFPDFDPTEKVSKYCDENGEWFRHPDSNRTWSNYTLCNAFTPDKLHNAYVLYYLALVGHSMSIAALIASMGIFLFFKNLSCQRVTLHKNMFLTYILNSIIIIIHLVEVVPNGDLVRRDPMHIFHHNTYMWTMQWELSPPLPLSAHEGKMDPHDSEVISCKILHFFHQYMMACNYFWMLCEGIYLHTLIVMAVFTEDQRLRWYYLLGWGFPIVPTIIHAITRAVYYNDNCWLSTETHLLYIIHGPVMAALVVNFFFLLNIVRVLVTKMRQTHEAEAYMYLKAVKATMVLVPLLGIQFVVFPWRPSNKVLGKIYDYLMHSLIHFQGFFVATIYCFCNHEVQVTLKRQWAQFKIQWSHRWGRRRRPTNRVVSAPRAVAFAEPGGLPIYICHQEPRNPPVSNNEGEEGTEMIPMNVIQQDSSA
T1 sequence (Q9JJ73 23-147 partner): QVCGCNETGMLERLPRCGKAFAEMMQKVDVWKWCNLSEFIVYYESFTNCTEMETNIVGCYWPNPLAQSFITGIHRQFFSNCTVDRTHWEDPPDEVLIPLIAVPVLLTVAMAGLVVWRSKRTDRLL
Protocol: The functional activities of lipidated pramlintide analogue peptides, such as cAMP production, were tested in 1321N1 cell line with stable recombinant expression of human calcitonin receptor (hCTR) or human amylin receptor (calcitonin receptor co-expressed with receptor activity modifying protein, RAMP3) (hAMYR3) or HEK cells with stable recombinant expression of rat calcitonin receptor (rat CTR) or rat amylin receptor (calcitonin receptor co-expressed with receptor activity modifying protein, RAMP3) (Rat AMYR3). […]
The test peptide stock was prepared in DMSO and diluted in assay buffer to reach stated concentrations and transferred in duplicates into a 384-black shallow well microtitre assay plate (Corning #3676). Cells were added to the assay plate, incubated at room temperature for 30 minutes and the CAMP level measured using CAMP dynamic 2 HTRF kit (Cisbio, Cat #62AM4PEJ), following the two step protocol as per manufacturer's recommendations. The plates were read on an Envision (Perkin Elmer) using excitation wavelength of 320 nm and emission wavelengths of 620 nm & 665 nm.
Data was transformed to % Delta F as described in the manufacturer's guidelines and analyzed as percent activation of maximal amylin or calcitonin effect by 4-parameter logistic fit to determine EC50 values. […]

[2] = Thioflavin T fibrillation assay; format: physicochemical; conditions: 1 mg/mL in 25 mM sodium acetate buffer pH 4.0, 37° C., 6 days, orbital shaking; >144 h = no increase
How it was run: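 Peptides at 1 mg/mL in 25 mM sodium acetate pH 4.0 were mixed with ThT (0.25 mM stock) and held 6 days at 37 °C with intermittent orbital shaking at 500–750 rpm. Fluorescence (ex 444/em 480 nm) was read every 30 min, with buffer baseline correction and 5 replicates. Value: mean time to a detectable fluorescence increase.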

EC50 [1] [nM]	Time taken to detect increase in fluorescence intensity [2] [h]	Compound
0.0226	<5	CC[C@H](C)[C@H](NC(=O)[C@H](C)NC(=O)[C@@H]1CCCN1C(=O)[C@H](Cc1ccccc1)NC(=O)[C@H](CC(N)=O)NC(=O)[C@@H]1CCCN1C(=O)[C@H](CO)NC(=O)[C@H](CO)NC(=O)[C@H](Cc1c[nH]cn1)NC(=O)[C@@H](NC(=O)[C@H](CC(C)C)NC(=O)[C@H](Cc1ccccc1)NC(=O)[C@H](CC(N)=O)NC(=O)[C@H](C)NC(=O)[C@H](CC(C)C)NC(=O)[C@H](CCCNC(=N)N)NC(=O)[C@H](CCC(N)=O)NC(=O)[C@@H](NC(=O)[C@H](C)NC(=O)[C@@H]1CSSC[C@H](NC(=O)[C@@H](N)CCCCNC(=O)CC[C@H](NC(=O)CC[C@H](NC(=O)CCCCCCCCCCCCCCCCCCC(=O)O)C(=O)O)C(=O)O)C(=O)N[C@@H](CC(N)=O)C(=O)N[C@@H]([C@@H](C)O)C(=O)N[C@@H](C)C(=O)N[C@@H]([C@@H](C)O)C(=O)N1)[C@@H](C)O)C(C)C)C(=O)N[C@@H](CC(C)C)C(=O)N[C@@H](CO)C(=O)N1CCC[C@H]1C(=O)N[C@H](C(=O)N[C@@H](CC(N)=O)C(=O)N[C@H](C(=O)NCC(=O)N[C@@H](CO)C(=O)N[C@@H](CC(N)=O)C(=O)N[C@H](C(=O)N[C@@H](Cc1ccc(O)cc1)C(N)=O)[C@@H](C)O)C(C)C)[C@@H](C)O [Peptide 115] (H-K([γGlu-γGlu-C20 diacid])CNTATCATQRLANFLVHSSPNFPAILSPTNVGSNTY-NH2; disulfide 2-7; N-terminus assumed)
0.0122	<5	CC[C@H](C)[C@H](NC(=O)[C@@H]1CCCN1C(=O)CNC(=O)[C@H](Cc1ccccc1)NC(=O)[C@H](CC(N)=O)NC(=O)[C@H](CC(N)=O)NC(=O)[C@H](CO)NC(=O)[C@H](CO)NC(=O)[C@H](Cc1c[nH]cn1)NC(=O)[C@@H](NC(=O)[C@H](CC(C)C)NC(=O)[C@H](Cc1ccccc1)NC(=O)[C@H](CC(N)=O)NC(=O)[C@H](C)NC(=O)[C@H](CC(C)C)NC(=O)[C@H](CCCNC(=N)N)NC(=O)[C@H](CCC(N)=O)NC(=O)[C@@H](NC(=O)[C@H](C)NC(=O)[C@@H]1CSSC[C@H](NC(=O)[C@@H](N)CCCCNC(=O)CC[C@H](NC(=O)CC[C@H](NC(=O)CCCCCCCCCCCCCCCCCCC(=O)O)C(=O)O)C(=O)O)C(=O)N[C@@H](CC(N)=O)C(=O)N[C@@H]([C@@H](C)O)C(=O)N[C@@H](C)C(=O)N[C@@H]([C@@H](C)O)C(=O)N1)[C@@H](C)O)C(C)C)C(=O)N[C@@H](CC(C)C)C(=O)N1CCC[C@H]1C(=O)N1CCC[C@H]1C(=O)N[C@H](C(=O)N[C@@H](CC(N)=O)C(=O)N[C@H](C(=O)NCC(=O)N[C@@H](CO)C(=O)N[C@@H](CCCNC(=N)N)C(=O)N[C@H](C(=O)N[C@@H](Cc1ccc(O)cc1)C(N)=O)[C@@H](C)O)C(C)C)[C@@H](C)O [Peptide 114] (H-K([γGlu-γGlu-C20 diacid])CNTATCATQRLANFLVHSSNNFGPILPPTNVGSRTY-NH2; disulfide 2-7; N-terminus assumed)
